Measured values published in patent US20090011974A1, “Scavenger Receptor B1 (Cla-1) Targeting for the Treatment of Infection, Sepsis and Inflammation” (priority 2002, published 2009).
“Also recorded” adds a separate entry of the source. Where no end group is shown, it is not given here.

Experiments:
[1] = tested on: CLA-1 overexpressing HeLa cells; assay: Bodipy-LPS uptake in HeLa cells in the presence of competitors; type: cell-based, human; settings: for effect on Bodipy-LPS uptake (surface binding and internalization): 100-fold excess of peptide, HeLa cells
Description: HeLa cells cultured on collagen-coated glass micro-slides are incubated with 5 μg/ml of Alexa 568 HDL, 1-0.5 μg/ml of Alexa 568 apoA-I, 1-0.5 μg/ml of Alexa 568 apoA-II or 0.5 μg/ml Bodipy-LPS for 1-2 hour in a CO2 incubator in DMEM containing 20 mg/ml BSA. […] Imaging is performed in PBS containing 0.4 mg/ml of Trypan Blue as the quenching agent. […] For co-localization, Bodipy-LPS and Alexa-568-apoA-I are used at the same concentration of 0.5 μg/ml. A Nikon video-imaging system, consisting of a phase contrast inverted microscope equipped with set of objectives and filters for immunofluorescence and connected to a digital camera and image processor, is used for recording Alexa-568-HDL and Bodipy-LPS uptake. For co-localization experiments, fluorescence is viewed with a Zeiss 510 laser scanning confocal microscope, using a krypton-argon-Omnichrome laser with excitation wavelengths of 488 and 568 nm for Bodipy-LPS and Alexa-568, respectively.
(§1) HeLa cells cultured on glass micro-slides are incubated with 5 μg/ml of Alexa568 HDL, 1-0.5 μg/ml of Alexa 568 apoA-I, 1-0.5 μg/ml of Alexa 568 L-37PA or 0.5 μg/ml Bodipy-LPS for 1-2 h in a CO2 incubator in DMEM containing 1 mg/ml BSA. […] For co-localization, Bodipy-LPS and Alexa 568-HDL or Bodipy-LPS and Alexa 568-L-37PA were used at the same concentrations of 0.5 μg/ml. Fluorescence was viewed with a Zeiss 510 laser scanning confocal microscope, using a krypton-argon-Omnichrome laser with excitation wavelengths of 488 and 568 nm for Bodipy-LPS and Alexa-568 labels, respectively.
Competition Experiments. The cells are incubated in 1 μg/ml Bodipy-LPS in the presence increasing concentrations of studied peptides. After 2-h incubation cells are washed with ice-cold PBS and lysed in 0.1% sodium dodecyl sulfate (SDS). The lysate fluorescence is measured by HTS7000 Bioassay reader (Perkin Elmer) using 488 nm for excitation and 533 nm for emission monitoring.

CLA-1 [2] = biological target: T1, CLA-1 (Homo sapiens, UniProt Q8WTV0); assay: Confocal uptake of Alexa/Bodipy labelled ligands in CLA-1 expressing versus mock transfected HeLa cells; type: cell-based; settings: for uptake in CLA-1 transfected HeLa cells compared with mock-transfected control: labelled ligand, confocal microscopy
T1 construct: using the expression plasmid pTRE2 (Clontech, Pal Alto, Calif.), encoding a CLA-1 protein (pTRE2-CLA-1); expressed in transfected cells; host or cells: HeLa (Tet-off) cells (Clontech), stably co-transfected with pTRE2-CLA-1 and pTK-Hyg and selected with hygromycin
T1 sequence (Q8WTV0 1-509 isoform Q8WTV0-2): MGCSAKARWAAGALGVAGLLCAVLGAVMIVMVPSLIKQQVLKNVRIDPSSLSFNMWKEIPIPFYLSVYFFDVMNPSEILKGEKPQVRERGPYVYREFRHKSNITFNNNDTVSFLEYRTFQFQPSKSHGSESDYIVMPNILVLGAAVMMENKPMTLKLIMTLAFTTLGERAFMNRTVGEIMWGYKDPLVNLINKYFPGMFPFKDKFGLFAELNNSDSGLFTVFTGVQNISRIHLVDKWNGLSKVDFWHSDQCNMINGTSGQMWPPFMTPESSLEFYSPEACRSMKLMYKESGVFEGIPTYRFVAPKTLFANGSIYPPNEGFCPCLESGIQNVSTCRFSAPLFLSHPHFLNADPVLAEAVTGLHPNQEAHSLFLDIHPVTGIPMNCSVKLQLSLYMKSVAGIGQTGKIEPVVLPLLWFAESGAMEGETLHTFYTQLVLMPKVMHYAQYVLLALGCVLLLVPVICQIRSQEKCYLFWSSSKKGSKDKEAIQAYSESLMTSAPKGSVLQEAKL
Description: Preparation of BODIPY-LPS and Alexa-568 HDL, Lipid-free ApoA-I, L-37PA, L2D-37PA and 18A. HDL, apoA-I, L-37PA, L2D-37PA and 18A are conjugated with Alexa-568, SE (Molecular Probes, protein labeling kit) following the kit instructions. The Alexa ligands are analyzed by 10-20% Tricine-SDS peptide gel electrophoresis. Gels are scanned using Variable Mode Imager, Typhoon 9200, Molecular Dynamics. Alexa-labeled preparations of HDL, apolipoproteins and the peptides are found in appropriate positions with molecular masses of 28, 5 and 2.5 kDa for apoA-I, L-37PA and 18PA, respectively.
as §1

[3] = Limulus amebocyte lysate (LAL) assay for LPS incubated with peptides; settings: 10 ng/ml LPS, 10 μg/ml peptide, 37° C., 24 h; for effect on LAL activity of LPS in the absence of bivalent cations: PBS; for effect on LAL activity of LPS in media containing bivalent cations: RPMI-1640 1% FCS or DPBS
Text: Limulus Amebocyte Lysate (LAL) Assay for LPS.
Limulus amebocyte lysate (LAL) assay for LPS.

THP-1 cells [4] = assay: LPS-stimulated cytokine production in THP-1 cells (ELISA); type: cell-based, human; settings: 10 ng/ml LPS, 24 h
Description: (§2) THP-1 and CLA-1 overexpressing HeLa cells. Human monocyte-macrophages, THP-1 (ATCC [American Type Culture Collection] TIB 71), are grown in 48-well plates in RPMI 1640 medium supplemented with 10% fetal calf serum (FCS), penicillin (100 U/ml), and streptomycin (100 μg/ml). All experiments involving LPS-induced interleukin production utilize the same media except that 1% FCS was used. Hela cells were cultured as previously reported (Vishnyakova, T. G. et al. (2003) “BINDING AND INTERNALIZATION OF LIPOPOLY[…] CLA-1, A HUMAN ORTHOLOGUE OF RODENT […] RECEPTOR B1,” J. Biol. Chem 278:22771-22780).
Assays for cytokines and lactate dehydrogenase (LD). […]

THP-1 cells [5] = assay: LTA, Gro-EL and HSP60 stimulated IL-8/IL-6 production in THP-1 cells; type: cell-based, human; settings: 1 μg/ml LTA or Gro-EL, 10-200 fold excess of peptide
Description: as §2
Assays for cytokines and lactate dehydrogenase (LD).

CLA-1 [6] = biological target: T1, CLA-1; assay: Competition for Alexa 488-SAA uptake in CLA-1 overexpressing and mock transfected HeLa cells (FACS); type: binding; settings: mock transfected and CLA-1 overexpressing HeLa cells
Description: Competition experiments. Cells are cultured for 24 hr in serum free DMEM before experiments. […] For KKB-1 anti-CLA-1 blocking experiments, cells are pre-incubated with KKB-1 rabbit anti-serum (non-immune rabbit serum as a negative control) at a dilution of 1:10 followed by ligand addition to a final concentration of 5 μg/ml and a 1-hour incubation. Cell fluorescence was analyzed by FACS analyses.

| Substance | effect on Bodipy-LPS uptake (surface binding and internalization) [1] | SR-BI/CLA-1 ligand property (CLA-1 [2]) | uptake in CLA-1 transfected HeLa cells compared with mock-transfected control (CLA-1 [2]) | effect on LAL activity of LPS in the absence of bivalent cations [3] | effect on LAL activity of LPS in media containing bivalent cations [3] | effect on LPS-stimulated cytokine (IL-8, IL-6, TNF-α) production (THP-1 cells [4]) | effect on LTA and Gro-EL stimulated IL-8 and IL-6 production (THP-1 cells [5]) | competition with Alexa 488-SAA for CLA-1 (CLA-1 [6]) | effect on LAL activity of LPS in the absence of bivalent cations ([3]; listed as L2D-37P A) | effect on LAL activity of LPS in media containing bivalent cations ([3]; listed as L2D-37P A) | effect on surface bound Bodipy-LPS ([1]; 100× excess, CLA-1 overexpressing cells) | effect on Bodipy-LPS uptake ([1]; 200× excess of unlabeled lipid poor apoA-I, CLA-1 overexpressing HeLa cells) | competition with Alexa 488-SAA for CLA-1 (CLA-1 [6]; listed as ApoA-I) |
| --- | --- | --- | --- | --- | --- | --- | --- | --- | --- | --- | --- | --- | --- |
| DWLKAFYDKVAEKLKEAF [Peptide 18A] | did not affect LPS-uptake | less potent SR-BI/CLA-1 ligand | not increased | similarly neutralized LPS activity | had no effect on the LAL activity of LPS in culture media | did not affect LPS-uptake and LPS-stimulated cytokine production; also recorded: Neither L2D-37PA nor 18A, a single helix containing peptide, are effective inhibitors; also recorded: without effect | low blocking efficiency | – | – | – | – | – | – |
| DWLKAFYDKVAEKLKEAF-P-DWLKAFYDKVAEKLKEAF [L1D-37PA] (DWLKAFYDKVAEKLKEAFPDWLKAFYDKVAEKLKEAF; not fully specified (residue 1)) [Peptide L1D-37PA] | – | – | – | – | – | not effective blockers | not effective blockers; also recorded: no effect was observed | No competition is demonstrated | – | – | – | – | – |
| DWLKAFYDKVAEKLKEAF-P-DWLKAFYDKVAEKLKEAF [L2D-37PA] (DWLKAFYDKVAEKLKEAFPDWLKAFYDKVAEKLKEAF; also: two D-amino acids per helix, places not given here) [Peptide L2D-37PA] | did not affect LPS-uptake; also recorded: does not decrease LPS uptake; also recorded: block neither LPS uptake | do not bind to SR-BI/CLA-1 | not increased | also decreases LPS activity in the absence of bivalent cations | No substantial LPS neutralization; also recorded: had no effect in the presence of bivalent cations | did not affect LPS-uptake and LPS-stimulated cytokine production; also recorded: Neither L2D-37PA nor 18A, a single helix containing peptide, are effective inhibitors; also recorded: not effective blockers; also recorded: without effect; also recorded: block neither LPS uptake nor LPS/LTA/Gro-EL induced interleukin (IL-6 and IL-8) secretion | not effective blockers; also recorded: block neither LPS uptake nor LPS/LTA/Gro-EL induced interleukin (IL-6 and IL-8) secretion; also recorded: no effect was observed | No competition is demonstrated | similarly neutralized LPS activity | had no effect on the LAL activity of LPS in culture media | – | – | – |
| DWLKAFYDKVAEKLKEAF-P-DWLKAFYDKVAEKLKEAF [L3D-37PA] (DWLKAFYDKVAEKLKEAFPDWLKAFYDKVAEKLKEAF; also: triple D-amino acid substitutions, places not given here) [Peptide L3D-37PA] | – | – | – | – | – | not effective blockers | not effective blockers; also recorded: no effect was observed | No competition is demonstrated | – | – | – | – | – |
| apoA-I: lipid poor apolipoprotein A-I purified from human plasma | – | – | Increased surface binding and internalization | – | – | – | – | compete with Alexa 488-SAA for CLA-1 | – | – | eliminated surface bound Bodipy-LPS | dramatically reduces Bodipy-LPS uptake | competed for CLA-1 binding with Alexa 488-SAA |
